Reference: the NIST ThermoML archive (doi:10.1016/j.fluid.2018.09.024)
± gives the expanded uncertainty stated by the source.

Assay: activity coefficient (dimensionless); of the first substance listed, at infinite dilution; xn = mol fraction of the nth substance listed
Conditions: 101.33 kPa, Liquid, Chromatography, x1 = 0

Compound | activity coefficient (328.15 K) | activity coefficient (338.15 K) | activity coefficient (348.15 K) | activity coefficient (358.15 K) | activity coefficient (368.15 K) | activity coefficient (378.15 K) | activity coefficient (318.15 K)
CCCCCCCCC [nonane] + CCCCCCCCCCCC[N+](C)(C)CCOc1ccccc1.N#C[N-]C#N | 7.69 ± 0.52 | 7.83 ± 0.53 | 7.95 ± 0.54 | 8.08 ± 0.55 | 8.21 ± 0.56 | 8.34 ± 0.57 | –
C=Cc1ccccc1 [styrene] + CCCCCCCCCCCC[N+](C)(C)CCOc1ccccc1.O=S(=O)([N-]S(=O)(=O)C(F)(F)F)C(F)(F)F | 0.672 ± 0.046 | 0.711 ± 0.047 | 0.75 ± 0.049 | 0.788 ± 0.051 | 0.83 ± 0.05 | – | 0.632 ± 0.044
CC(C)(C)O [2-methylpropan-2-ol] + CCCCCCCCCCCC[N+](C)(C)CCOc1ccccc1.N#C[N-]C#N | 0.539 ± 0.039 | 0.554 ± 0.04 | 0.569 ± 0.041 | 0.584 ± 0.041 | 0.598 ± 0.042 | 0.613 ± 0.043 | –
CC(C)=O [acetone] + CCCCCCCCCCCC[N+](C)(C)CCOc1ccccc1.O=S(=O)([N-]S(=O)(=O)C(F)(F)F)C(F)(F)F | 0.353 ± 0.032 | 0.375 ± 0.033 | 0.398 ± 0.034 | 0.421 ± 0.035 | 0.445 ± 0.036 | – | 0.331 ± 0.032
C#CCCCCCC [1-octyne] + CCCCCCCCCCCC[N+](C)(C)CCOc1ccccc1.N#C[N-]C#N | 2.22 ± 0.15 | 2.34 ± 0.16 | 2.46 ± 0.17 | 2.57 ± 0.17 | 2.68 ± 0.18 | 2.8 ± 0.19 | –
Cc1ccc(C)cc1 [1,4-dimethylbenzene] + CCCCCCCCCCCC[N+](C)(C)CCOc1ccccc1.N#C[N-]C#N | 1.38 ± 0.09 | 1.44 ± 0.09 | 1.5 ± 0.1 | 1.57 ± 0.1 | 1.63 ± 0.11 | 1.69 ± 0.11 | –
C=C(C)c1ccccc1 [(1-methylethenyl)benzene] + CCCCCCCCCCCC[N+](C)(C)CCOc1ccccc1.O=S(=O)([N-]S(=O)(=O)C(F)(F)F)C(F)(F)F | 0.831 ± 0.054 | 0.881 ± 0.056 | 0.931 ± 0.059 | 0.985 ± 0.062 | 1.03 ± 0.06 | – | 0.784 ± 0.051
C=COC(C)=O [vinyl acetate] + CCCCCCCCCCCC[N+](C)(C)CCOc1ccccc1.N#C[N-]C#N | 1.24 ± 0.08 | 1.28 ± 0.08 | 1.31 ± 0.09 | 1.35 ± 0.09 | 1.38 ± 0.09 | 1.41 ± 0.09 | –
CCCCCCCCCC [decane] + CCCCCCCCCCCC[N+](C)(C)CCOc1ccccc1.O=S(=O)([N-]S(=O)(=O)C(F)(F)F)C(F)(F)F | 5.8 ± 0.4 | 5.87 ± 0.4 | 5.92 ± 0.4 | 5.98 ± 0.41 | 6.03 ± 0.41 | – | 5.72 ± 0.39
C1CCOC1 [tetrahydrofuran] + CCCCCCCCCCCC[N+](C)(C)CCOc1ccccc1.O=S(=O)([N-]S(=O)(=O)C(F)(F)F)C(F)(F)F | 0.39 ± 0.034 | 0.418 ± 0.035 | 0.446 ± 0.036 | 0.473 ± 0.037 | 0.502 ± 0.038 | – | 0.364 ± 0.033
CC(C)c1ccccc1 [isopropylbenzene] + CCCCCCCCCCCC[N+](C)(C)CCOc1ccccc1.O=S(=O)([N-]S(=O)(=O)C(F)(F)F)C(F)(F)F | 1.19 ± 0.08 | 1.24 ± 0.08 | 1.29 ± 0.08 | 1.34 ± 0.09 | 1.39 ± 0.09 | – | 1.14 ± 0.07
C1CCCCC1 [cyclohexane] + CCCCCCCCCCCC[N+](C)(C)CCOc1ccccc1.N#C[N-]C#N | 3.15 ± 0.21 | 3.16 ± 0.22 | 3.18 ± 0.22 | 3.2 ± 0.22 | 3.22 ± 0.22 | 3.24 ± 0.22 | –
CCC(C)CC [3-methylpentane] + CCCCCCCCCCCC[N+](C)(C)CCOc1ccccc1.O=S(=O)([N-]S(=O)(=O)C(F)(F)F)C(F)(F)F | 2.81 ± 0.19 | 2.88 ± 0.2 | 2.95 ± 0.2 | 3.01 ± 0.2 | 3.07 ± 0.21 | – | 2.74 ± 0.19
CCc1ccccc1 [ethylbenzene] + CCCCCCCCCCCC[N+](C)(C)CCOc1ccccc1.N#C[N-]C#N | 1.4 ± 0.09 | 1.45 ± 0.1 | 1.5 ± 0.1 | 1.55 ± 0.1 | 1.6 ± 0.11 | 1.64 ± 0.11 | –
Cc1ccccc1 [toluene] + CCCCCCCCCCCC[N+](C)(C)CCOc1ccccc1.O=S(=O)([N-]S(=O)(=O)C(F)(F)F)C(F)(F)F | 0.725 ± 0.048 | 0.766 ± 0.05 | 0.81 ± 0.052 | 0.851 ± 0.055 | 0.893 ± 0.057 | – | 0.681 ± 0.046
